Test results: publication PMC10888562 (International Journal of Molecular Sciences, 2024)
Where two headings read alike, the source gives them in different places.

Tests used:
[1] = tested on: A2780 ovarian; parameters: method as in PMID 36142383, PMID 37173934, PMID 36296713; conditions: cited from earlier work
[2] = tested on: cisplatin-resistant ADDP ovarian variant; parameters: method as in PMID 36142383, PMID 37173934, PMID 36296713; conditions: cited from earlier work
[3] = tested on: histone deacetylase (HDAC); test: Fluorometric HDAC activity assay on extracts of treated HT29 cells; format: cell-based, human; conditions: HT29 colon cells treated 72 h at GI50 concentration; lower RFU = decline in HDAC activity; HT29 extract control 5154 ± 40
Experimental: All values are expressed as RFU.
To study the HDAC activity in HT29 treated cells, a Fluorometric HDAC Activity Assay Kit ab156064 (Abcam, Cambridge, MA, USA) was used and all sample preparations were made based on the manufacturer’s protocol. A total of 10^6 cells/mL of HT29 cells were seeded in DMEM with serum deprivation for 18 h to synchronise the cells. […] Cells were then washed with cold PBS and resuspended in lysis buffer (10 mM Tris HCl (pH 7.5), 10 mM NaCl, 15 mM MgCl2, 250 mM sucrose, 0.5% NP-40 and 0.1 mM EGTA) and lysed on ice for 20 min. Cells were centrifuged through 4 mL of sucrose cushion (30% sucrose, 10mM Tris HCl (pH 7.5), 10 mM NaCl and 3mM MgCl2) at 1300× g for 10 min at 4 °C. Supernatant was discarded and the pellet was washed and resuspended in extraction buffer (50 mM HEPES-KOH (pH 7.5), 420 mM NaCl, 0.5 mM EDTA 2Na, 0.1 mM EGTA and 10% glycerol) and then sonicated for 30 s. Nuclei were lysed for 30 min on ice and centrifuged at 20,000× g for 30 min. The supernatant was collected, and the samples were prepared for the fluorometric assay according to the manufacturer’s protocol (Histone Deacetylase (HDAC) Activity Assay Fluorometric Kit ab156064, Abcam). The changes in the relative fluorescence intensity (expressed as RFU) were recorded each minute over 60 min using the Glo-Max®-Multimode microplate reader (Promega Corporation, Alexandra, VIC, Australia) at an excitation/emission of 355/460 nm.

[4] = tested on: A431 skin; parameters: method as in PMID 36142383, PMID 37173934, PMID 36296713; conditions: cited from earlier work
[5] = tested on: BE2-C neuroblastoma; parameters: method as in PMID 36142383, PMID 37173934, PMID 36296713; conditions: cited from earlier work
[6] = tested on: multiple human cell lines; parameters: method as in PMID 36142383, PMID 37173934, PMID 36296713; conditions: average over all cell lines; cited from earlier work
[7] = tested on: non-tumour-derived MCF10A breast line; parameters: method as in PMID 36142383, PMID 37173934, PMID 36296713; conditions: cited from earlier work
[8] = tested on: U87 glioblastoma; parameters: method as in PMID 36142383, PMID 37173934, PMID 36296713; conditions: cited from earlier work
[9] = tested on: SJ-G2 glioblastoma; parameters: method as in PMID 36142383, PMID 37173934, PMID 36296713; conditions: cited from earlier work
[10] = tested on: MCF-7 breast; parameters: method as in PMID 36142383, PMID 37173934, PMID 36296713; conditions: cited from earlier work
[11] = tested on: MIA pancreas; parameters: method as in PMID 36142383, PMID 37173934, PMID 36296713; conditions: cited from earlier work
[12] = tested on: Du145 prostate; parameters: method as in PMID 36142383, PMID 37173934, PMID 36296713; conditions: cited from earlier work
[13] = tested on: H460 lung; parameters: method as in PMID 36142383, PMID 37173934, PMID 36296713; conditions: cited from earlier work
[14] = tested on: HT29 colon cells; test: TMRE mitochondrial membrane potential (MtMP) assay; format: cell-based, human; conditions: GI50 drug concentration (FCCP 20 μM)
Experimental: This was achieved by determining if the overproduction of ROS induced by these complexes impacts mitochondrial activity by altering MtMP. Briefly, there is evidence showing a strong correlation between increased levels of ROS and mitochondrial impairment. […] The MtMP changes recorded are measured as RFU. […] To investigate the MtMP changes in HT29 treated cells, a TMRE-MtMP Assay Kit (Abcam, Cambridge, MA, USA) was used, as previously described. In 96-well plates, 25,000 cells/mL of HT29 colon cells in DMEM were seeded. Cells were treated with a GI50 drug concentration for each complex. At 24, 48 or 72 h, cells were washed with PBS and stained with tetramethylrhodamine, ethyl ester (TMRE) (1 μM) and incubated for 30 min. TMRE was then removed, and cells were then re-washed with PBS (0.2% BSA), after which phenol red free media was added. The plates were directly scanned to measure fluorescence (expressed as RFU), using the Glo-Max®-Multimode microplate reader (Promega Corporation, Alexandra, VIC, Australia) at an excitation/emission of 549/575 nm. For the positive control, 20 μM carbonyl cyanide 4-(trifluoromethoxy) phenylhydrazone (FCCP)) was added to the cells and incubated for 10 min. The cells were washed with PBS (0.2% BSA) and stained with TMRE (1 μM) for 30 min; this was removed, and phenol red free media was added, and the final solution was scanned as mentioned above.

[15] = tested on: HT29 colon; parameters: method as in PMID 36142383, PMID 37173934, PMID 36296713; conditions: cited from earlier work
[16] = tested on: multiple human cell lines; test: MTT cell viability assay, all cell lines (mean/range of GI50); format: cell-based; conditions: for fold decrease of average GI50 relative to the platinum(IV) scaffold: average GI50 of scaffold vs 5B3A derivative, all cell lines; for GI50: average over all cell lines

Compound | HDAC Inhibition at 72 h [3] [RFU] | MtMP Changes ([14]; 24 h, control 542 ± 4) [RFU] | MtMP Changes ([14]; 48 h, control 507 ± 11) [RFU] | MtMP Changes ([14]; 72 h, control 449 ± 10) [RFU] | fold decrease of average GI50 relative to the platinum(IV) scaffold [16] [fold] | GI50 [16] [nM] | other results
N.N.[Cl][Pt][Cl] [Cisplatin, cis-diammineplatinum(II) dichloride] | 3698 ± 59 | 232 ± 4 | 230 ± 4 | 192 ± 7 |  |  | GI50 [1]: 1000 ± 100 nM; GI50 [2]: 28000 nM; GI50 [4]: 2400 ± 300 nM; GI50 [5]: 1900 ± 200 nM; GI50 [6]: 5840 ± 610 nM; GI50 [7]: 5200 ± 520 nM; GI50 [8]: 3800 ± 1100 nM; GI50 [9]: 400 ± 100 nM; GI50 [10]: 6500 ± 800 nM; GI50 [11]: 7500 ± 1300 nM; GI50 [12]: 1200 ± 100 nM; GI50 [13]: 900 ± 200 nM; GI50 [15]: 11300 nM
[Pt^IV(5-Mephen)(SS-DACH)(5B3A)(OH)]^2+ [5-5B3A] | 2791 ± 72 | 324 ± 9 | 280 ± 12 | 184 ± 4 | 4 | 104 ± 12 | fold lower average GI50 than 5MESS ([16]; average GI50, all cell lines): approximately 0.9 fold
[Pt^IV(5,6-Me2phen)(SS-DACH)(5B3A)(OH)]^2+ [56-5B3A] | 2550 ± 57 | 321 ± 11 | 267 ± 8 | 148 ± 7 | 3.6 | 42 ± 7 | 
[Pt^IV(phen)(SS-DACH)(5B3A)(OH)]^2+ [P-5B3A] | 3620 ± 35 | 332 ± 7 | 317 ± 7 | 263 ± 5 | ~1.6 | 2080 ± 703 | fold larger average GI50 than 5-5B3A ([16]; average GI50, all cell lines): 20 fold; fold larger average GI50 than 56-5B3A ([16]; average GI50, all cell lines): 50 fold
